Among the test systems are DU-145 prostate; A498 renal; SK-OV-3 ovarian; NCI-H226 lung; NCI-H460 lung; SK-MEL-5 melanoma; SK-MEL-28 melanoma; TK-10 renal; SNB-75 CNS; UO-31 renal.
What all share (assay): growth of human tumour cells (NCI), 48 h

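These data come from cells grown in 96-well plates and exposed to compound for 48 hours at five concentrations. The concentration for 50% growth inhibition is given as GI50. Definition used: TGI = concentration required for complete inhibition of growth.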

Turning to `Cc1cc(Cl)ccc1Nc1nc(C(F)(F)F)ccc1C(=O)N1CCN(c2cccc(Cl)c2)CC1`, the GI50 with DU-145 prostate was greater than 100 µM; with A498 renal, 37.1 µM; in the test with SK-OV-3 ovarian, greater than 100 µM; in the test with NCI-H226 lung it was greater than 100 µM; with NCI-H460 lung, greater than 100 µM; in the test with SK-MEL-5 melanoma, 65.6 µM. The GI50 in the test with SK-MEL-28 melanoma was greater than 100 µM; in the test with TK-10 renal it was greater than 100 µM; in the test on SNB-75 CNS, 1.11 µM; with UO-31 renal, 67.3 µM. In addition, the TGI in the test on DU-145 prostate, in the test with A498 renal, with SK-OV-3 ovarian, with NCI-H226 lung, with NCI-H460 lung and in the test with SK-MEL-5 melanoma was greater than 100 µM each time. Also, the TGI with SK-MEL-28 melanoma was greater than 100 µM; with TK-10 renal, greater than 100 µM; in the test with SNB-75 CNS, 87.5 µM; in the test with UO-31 renal, greater than 100 µM.
Turning to `CC1COCC(C)N1C1=C(Cl)C(=O)c2ccccc2C1=O` (stereo not given), the GI50 in the test with DU-145 prostate is 10.7 µM; in the test on A498 renal it was 14.4 µM; with SK-OV-3 ovarian, 17.9 µM; in the test with NCI-H226 lung it was 15.1 µM; in the test on NCI-H460 lung, 15.8 µM; with SK-MEL-5 melanoma, 6.83 µM. In addition, the GI50 in the test on SK-MEL-28 melanoma was 14.2 µM; with TK-10 renal it was 13 µM; in the test with SNB-75 CNS, 10.7 µM; with UO-31 renal it was 1.39 µM. For the same compound, the TGI turned out to be 22.9 µM with DU-145 prostate; 27.6 µM in the test on A498 renal; 31.8 µM with SK-OV-3 ovarian; 31.2 µM in the test with NCI-H226 lung; 33.6 µM in the test with NCI-H460 lung; 19.9 µM in the test with SK-MEL-5 melanoma. Besides, the TGI with SK-MEL-28 melanoma stood at 27.9 µM; in the test on TK-10 renal, 26.2 µM; in the test on SNB-75 CNS it was 23.2 µM; in the test with UO-31 renal, 2.73 µM.
Turning to `Nc1ccc2c(c1)c(N)nn2C(=O)Nc1ccc(Cc2ccccc2)cc1`, the GI50 in the test on DU-145 prostate is 10.9 µM; in the test with A498 renal, 14.4 µM; with SK-OV-3 ovarian it was 15.3 µM; in the test on NCI-H226 lung it was 16.1 µM; with NCI-H460 lung, 4.64 µM; in the test on SK-MEL-5 melanoma, 6.52 µM. Also, the GI50 in the test with SK-MEL-28 melanoma is 13.7 µM; with TK-10 renal, 19.4 µM; in the test with SNB-75 CNS, 17.4 µM; in the test with UO-31 renal, 4.72 µM. Besides, the TGI in the test with DU-145 prostate was 24 µM; in the test on A498 renal, 28.4 µM; with SK-OV-3 ovarian, 37.7 µM; in the test on NCI-H226 lung it was 38.3 µM; in the test with NCI-H460 lung it was 23.8 µM; in the test with SK-MEL-5 melanoma, 19.8 µM. Further, the TGI in the test on SK-MEL-28 melanoma worked out at 27.8 µM; with TK-10 renal, 46 µM; in the test on SNB-75 CNS it was 31.5 µM; with UO-31 renal, 32.6 µM.
`CC(=O)OC1CC2C(=O)C(=O)C1(C)C2(C)C` (stereo not given): the TGI in the test on DU-145 prostate, in the test on A498 renal, with SK-OV-3 ovarian, in the test on NCI-H226 lung, in the test on NCI-H460 lung and with SK-MEL-5 melanoma was greater than 100 µM throughout. The TGI in the test with SK-MEL-28 melanoma, in the test on TK-10 renal, in the test on SNB-75 CNS and in the test with UO-31 renal was greater than 100 µM in each case.
For `O=C(Cc1ccccc1)NN1C(=O)/C(=C\c2ccc(O)cc2)SC1=Nc1ccccc1`, the TGI in the test on DU-145 prostate, in the test with A498 renal, with SK-OV-3 ovarian, with NCI-H226 lung, in the test on NCI-H460 lung and in the test on SK-MEL-5 melanoma was greater than 100 µM in each case. Moreover, the TGI with SK-MEL-28 melanoma, in the test with TK-10 renal, in the test on SNB-75 CNS and in the test with UO-31 renal was greater than 100 µM each time.
As for `Cc1ccc(C(C)C)cc1NC(=O)Nc1ccc([N+](=O)[O-])cc1`, the GI50 is 2.49 µM with DU-145 prostate; 1.19 µM with A498 renal; 2.17 µM in the test on SK-OV-3 ovarian; 1.77 µM in the test on NCI-H226 lung; 2.21 µM in the test on NCI-H460 lung; 1.55 µM with SK-MEL-5 melanoma. Also, the GI50 was 2.78 µM in the test with SK-MEL-28 melanoma, 2.36 µM in the test on TK-10 renal, 2.52 µM in the test on SNB-75 CNS and 1.54 µM in the test on UO-31 renal. For the same compound, the TGI stood at 12 µM in the test with DU-145 prostate; 4.45 µM with A498 renal; 5.97 µM in the test with SK-OV-3 ovarian; 6.14 µM in the test on NCI-H226 lung; 5.34 µM in the test on NCI-H460 lung; 2.9 µM in the test with SK-MEL-5 melanoma. Also, the TGI in the test on SK-MEL-28 melanoma came out at 10.4 µM; in the test with TK-10 renal, 9.44 µM; in the test with SNB-75 CNS, 10.5 µM; with UO-31 renal, 5.79 µM.
As to `CN(C=O)/C=C/c1cc(O)ccc1O`, the TGI in the test with DU-145 prostate was greater than 100 µM; in the test with A498 renal, greater than 100 µM; with SK-OV-3 ovarian, greater than 100 µM; in the test on NCI-H226 lung, greater than 78.7 µM; with NCI-H460 lung it was greater than 74.7 µM; with SK-MEL-5 melanoma it was greater than 66.9 µM. For the same compound, the TGI is greater than 58.3 µM with SK-MEL-28 melanoma, 54.1 µM with TK-10 renal, greater than 59 µM in the test on SNB-75 CNS and 47 µM in the test with UO-31 renal.
With `CC1(C)OC2C(COS(N)(=O)=O)SC(n3cnc4cncnc43)C2O1` (stereo not given), the GI50 in the test on DU-145 prostate, in the test with A498 renal, in the test with SK-OV-3 ovarian, with NCI-H226 lung, with NCI-H460 lung and in the test with SK-MEL-5 melanoma was greater than 100 µM in each case. Besides, the GI50 in the test on SK-MEL-28 melanoma, in the test with TK-10 renal, in the test on SNB-75 CNS and with UO-31 renal was greater than 100 µM in each case. For the same compound, the TGI with DU-145 prostate, in the test with A498 renal, in the test with SK-OV-3 ovarian, in the test with NCI-H226 lung, in the test with NCI-H460 lung and in the test on SK-MEL-5 melanoma was greater than 100 µM in each case. Also, the TGI in the test on SK-MEL-28 melanoma, in the test with TK-10 renal, with SNB-75 CNS and with UO-31 renal was greater than 100 µM in each case.
`CC/C=C\C/C=C\C[C@H](O)C/C=C1/C(=O)C=C[C@@H]1C/C=C\CCCC(=O)OC`: the GI50 was 3.6 µM with DU-145 prostate; 2.48 µM in the test on A498 renal; 5.27 µM in the test on SK-OV-3 ovarian; 1.92 µM in the test on NCI-H226 lung; 3.2 µM in the test with NCI-H460 lung; 1.54 µM with SK-MEL-5 melanoma. For the same compound, the GI50 is 1.78 µM in the test with SK-MEL-28 melanoma, 2.95 µM in the test with TK-10 renal, 11.3 µM in the test with SNB-75 CNS and 1.55 µM in the test with UO-31 renal. The TGI in the test on DU-145 prostate came out at 14.6 µM; with A498 renal it was 4.67 µM; in the test on SK-OV-3 ovarian, 15 µM; with NCI-H226 lung, 3.79 µM; in the test with NCI-H460 lung, 10.7 µM; with SK-MEL-5 melanoma, 2.93 µM. Moreover, the TGI in the test with SK-MEL-28 melanoma was 4 µM; in the test with TK-10 renal it was 7.68 µM; in the test with SNB-75 CNS it was 24.6 µM; in the test with UO-31 renal, 3.03 µM.
